One compound from patent US20060204530A1, “Benzoyl peroxide compositions and methods of use” (JR CHEM, LLC, priority 2005, published 2006) can be followed below.

The series in a line: Solubility of benzoyl peroxide in the disclosed solvents. In kind it is physicochemical. The settings on record: room temperature. As to the method:
In embodiments, benzoyl peroxide can be added to the solvents to form a mixture at room temperature, e.g., at a temperature of 25 to about 27° C. Additionally, the benzoyl peroxide/solvent mixture also can be added to other ingredients to form desired products, e.g., emulsions, lotions, creams or gels at low temperatures. […] However the key difference between the disclosed prior art and the present compositions is that the benzoyl peroxide will actively go into solution at levels as high as 10% by weight of the total formulation. These solutions can offer new clear products of increased efficacy.

`O=C(OOC(=O)c1ccccc1)c1ccccc1` [benzoyl peroxide]: the “level at which benzoyl peroxide goes into solution” value is ≤ 10 % by weight of the total formulation.
